Results reported in US7968573B2, “Hydrazide compound and pesticidal use of the same” (Sumitomo Chemical Company, Limited, priority 2008, dated 2011).

Legend:
cotton aphids = assay: Test Example 2: spray on cucumber infested with cotton aphids; format: in vivo, Aphis gossypii; settings: 500 ppm spray solution, 20 ml/cup on cucumber with about 30 cotton aphids; counted six days after spraying
Protocol: At the same time, cucumber was planted in a polyethylene cup, and was grown until the first true leaf was developed. About 30 cotton aphids were put on the cucumber. One day after, the test spray solution as described above was sprayed in an amount of 20 ml/cup on the cucumber. Six days after spraying, the number of cotton aphids was counted, and a controlling value was calculated by the following equation: Controlling value(%)={1−(Cb×Tai)/(Cai×Tb)}×100 wherein, Cb: the number of insects in a non-treated section before treatment Cai: the number of insects in a non-treated section on observation Tb: the number of insects in a treated-section before treatment Tai: the number of insects in a treated-section on observation. Furthermore, the same way as Test Example 2, test spray solution of the comparative compound of the formula: […]

silver leaf whitefly = assay: Test Example 6: spray on cabbage with hatched larvae of silver leaf whitefly; format: in vivo; settings: Bemisia argentifolii, 168 h; 500 ppm spray solution, 20 ml/cup on cabbage with hatched larvae of silver leaf whitefly; counted seven days after spraying; read-out: Controlling value
Protocol: At the same time, cabbage was planted in a polyethylene cup, and grown until the first true leaf was developed. All leaves excluding the first true leaf were cut off. On the first true leaf, imagoes of silver leaf whitefly were released and allowed to lay eggs for about 24 hours. The cabbage was retained in a greenhouse for 8 days. When larvae hatched from the laid eggs, the test spray solution as described above was sprayed in an amount of 20 ml/cup to the cabbage. Seven days after spraying, the number of larvae surviving on the cabbage was counted, and a controlling value was calculated by the following equation: Controlling value(%)={1−(Cb×Tai)/(Cai×Tb)}×100 wherein, Cb: the number of worms in a non-treated section before treatment Cai: the number of worms in a non-treated section on observation Tb: the number of worms in a treated-section before treatment Tai: the number of worms in a treated-section on observation.

[1] = system: Frankliniella occidentalis; assay: Test Example 5: sprayed cucumber leaf, larvae of Frankliniella occidentalis; format: in vivo; settings: 168 h; 500 ppm spray solution, 20 ml/cup on cucumber, cut first true leaf; 20 larvae of Frankliniella occidentalis; counted seven days after spraying; read-out: Controlling value
Protocol: At the same time, cucumber was planted in a polyethylene cup, and was grown until the first true leaf was developed. The test spray solution as described above was sprayed in an amount of 20 ml/cup on the cucumber. After the drug solution sprayed on the cucumber was dried, the first true leaf was cut and then placed on a filter paper (diameter: 70 mm) containing water in a polyethylene cup (diameter: 110 mm). On the cucumber leaf, 20 larvae of Frankliniella occidentalis were released, and the polyethylene cup was capped. Seven days after spraying, the number of insects surviving on the cucumber leaf was counted, and a controlling value was calculated by the following equation: Controlling value(%)={1−(Cb×Tai)/(Cai×Tb)}×100 wherein, Cb: the number of insects in a non-treated section before treatment Cai: the number of insects in a non-treated section on observation Tb: the number of insects in a treated-section before treatment Tai: the number of insects in a treated-section on observation.

| Structure (SMILES) | Controlling value (cotton aphids) | pest or weed control at 500 ppm (silver leaf whitefly) | pest or weed control at 500 ppm [1] |
| --- | --- | --- | --- |
| COC(=O)CNC(=O)c1cccc(C)c1NC(=O)c1cc(C(F)(F)F)nn1-c1ncccc1Cl | less than 30% | – | – |
| COC(=O)NNC(=O)c1cc(Cl)cc(C)c1NC(=O)c1cc(C(F)(F)F)nn1-c1ncccc1Cl [(5)] | – | ≥ 90% | – |
| Cc1cc(Cl)cc(C(=O)NNC=O)c1NC(=O)c1cc(C(F)(F)F)nn1-c1ncccc1Cl [(17)] | – | – | ≥ 90% |
| CC(=O)NNC(=O)c1cc(Cl)cc(C)c1NC(=O)c1cc(C(F)(F)F)nn1-c1ncccc1Cl [(27)] | – | – | ≥ 90% |
| CSC(=O)NNC(=O)c1cc(Cl)cc(C)c1NC(=O)c1cc(C(F)(F)F)nn1-c1ncccc1Cl [(29)] | – | – | ≥ 90% |
| CCOC(=O)NNC(=O)c1cccc(C)c1NC(=O)c1cc(C(F)(F)F)nn1-c1ncccc1Cl [(32)] | – | ≥ 90% | – |
| COC(=O)NNC(=O)c1cc(Cl)cc(C)c1NC(=O)c1cc(Br)nn1-c1ncccc1Cl [(34)] | – | ≥ 90% | – |
| COC(=O)NNC(=O)c1cc(Cl)cc(Cl)c1NC(=O)c1cc(C(F)(F)F)nn1-c1ncccc1Cl [(56)] | – | ≥ 90% | – |
| COC(=O)NNC(=O)c1cc(Cl)cc(Br)c1NC(=O)c1cc(C(F)(F)F)nn1-c1ncccc1Cl [(59)] | – | ≥ 90% | – |
| COC(=O)NNC(=O)c1cc(Cl)cc(I)c1NC(=O)c1cc(Br)nn1-c1ncccc1Cl [(79)] | – | – | ≥ 90% |
| COC(=O)NNC(=O)c1cccc(C(F)(F)F)c1NC(=O)c1cc(Br)nn1-c1ncccc1Cl [(81)] | – | – | ≥ 90% |
| COC(=O)NNC(=O)c1ccc(Cl)c(C)c1NC(=O)c1cc(Br)nn1-c1ncccc1Cl [(85)] | – | – | ≥ 90% |
| COC(=O)NNC(=O)c1c(Cl)ccc(C)c1NC(=O)c1cc(Br)nn1-c1ncccc1Cl [(88)] | – | – | ≥ 90% |
| COC(=O)NNC(=O)c1cc(Cl)cc(C)c1NC(=O)c1cc(Br)cn1-c1ncccc1Cl [(93)] | – | ≥ 90% | – |
| COC(=O)NNC(=O)c1cc(Cl)cc(C)c1NC(=O)c1cc(SC)nn1-c1ncccc1Cl [(99)] | – | – | ≥ 90% |
| COC(=O)N(NC(=O)c1cc(Cl)cc(Br)c1NC(=O)c1cc(Br)nn1-c1ncccc1Cl)C(=O)OC [(107)] | – | ≥ 90% | – |
| COC(=O)N(C)NC(=O)c1cc(Cl)cc(C)c1NC(=O)c1cc(Br)nn1-c1ncccc1Cl [(114)] | – | ≥ 90% | – |
| COC(=O)N(C)N(C)C(=O)c1cc(Cl)cc(C)c1NC(=O)c1cc(Br)nn1-c1ncccc1Cl [(119)] | – | ≥ 90% | – |
| COC(=O)NNC(=O)c1cc(Cl)cc(C)c1NC(=O)c1cc(Br)c(Br)n1-c1ncccc1Cl [(127)] | – | ≥ 90% | – |

| Structure (SMILES) | Controlling value (cotton aphids) | pest or weed control at 500 ppm (silver leaf whitefly) | pest or weed control at 500 ppm [1] |
| --- | --- | --- | --- |
| COC(=O)NNC(=O)c1cc(Cl)cc(C)c1NC(=O)c1ccc(Cl)n1-c1ncccc1Cl [(129)] | – | ≥ 90% | – |
| COC(=O)NNC(=O)c1cc2ccccc2c(Br)c1NC(=O)c1cc(Br)nn1-c1ncccc1Cl [(140)] | – | – | ≥ 90% |
| COC(=O)N(C)N(C)C(=O)c1cc(C#N)cc(C)c1NC(=O)c1cc(Br)nn1-c1ncccc1Cl [(144)] | – | ≥ 90% | – |
| COC(=O)NNC(=O)c1cc(Cl)cc(C)c1NC(=O)c1cc(Cl)cn1-c1ncccc1Cl [(153)] | – | ≥ 90% | – |
| COC(=O)N(NC(=O)c1cc(Cl)cc(C)c1NC(=O)c1cc(Br)cn1-c1ncccc1Cl)C(=O)OC [(158)] | – | ≥ 90% | – |
| COC(=O)N(NC(=O)c1cc(Cl)cc(C)c1NC(=O)c1cc(Cl)cn1-c1ncccc1Cl)C(=O)OC [(159)] | – | – | ≥ 90% |
| COC(=O)N(NC(=O)c1cc(Cl)cc(C)c1NC(=O)c1cc(Cl)c(Cl)n1-c1ncccc1Cl)C(=O)OC [(167)] | – | – | ≥ 90% |
| COC(=O)NNC(=O)c1cc([N+](=O)[O-])cc(C)c1NC(=O)c1cc(Br)nn1-c1ncccc1Cl [(183)] | – | – | ≥ 90% |
| COC(=O)NNC(=O)c1cc(Cl)cc(C)c1NC(=O)c1cc(Br)cn1-c1ccncc1Cl [(187)] | – | – | ≥ 90% |
| COC(=O)N(NC(=O)c1cc(Br)cc(Br)c1NC(=O)c1cc(Br)cn1-c1ncccc1Cl)C(=O)OC [(201)] | – | ≥ 90% | – |
| COC(=O)N(C)N(C)C(=O)c1cc(Br)cc(Br)c1NC(=O)c1cc(Br)nn1-c1ncccc1Cl [(204)] | – | ≥ 90% | – |
| CN(C)C(=O)NN(C)C(=O)c1cc(Br)cc(Br)c1NC(=O)c1cc(Br)cn1-c1ncccc1Cl [(206)] | – | – | ≥ 90% |
| COC(=O)N(C)NC(=O)c1cc(Br)cc(Br)c1NC(=O)c1cc(Br)cn1-c1ncccc1Cl [(209)] | – | ≥ 90% | – |
| COCCOC(=O)N(NC(=O)c1cc(Cl)cc(C)c1NC(=O)c1cc(Br)nn1-c1ncccc1Cl)C(=O)OC [(215)] | – | ≥ 90% | – |
| Cc1cc(Cl)cc(C(=O)NNC(=O)OCCF)c1NC(=O)c1cc(Br)nn1-c1ncccc1Cl [(221)] | – | ≥ 90% | – |
| C#CCOC(=O)NNC(=O)c1cc(Br)cc(Br)c1NC(=O)c1cc(Br)cn1-c1ncccc1Cl [(223)] | – | ≥ 90% | – |
| COC(=O)NNC(=O)c1cc(Br)cc(Br)c1NC(=O)c1ccc(S(C)(=O)=O)n1-c1ncccc1Cl [(226)] | – | ≥ 90% | ≥ 90% |
| COC(=O)NNC(=O)c1cc(Br)cc(Br)c1NC(=O)c1ccc(SC)n1-c1ncccc1Cl [(227)] | – | – | ≥ 90% |
| COC(=O)N(C)N(C)C(=O)c1cc(Cl)cc(Cl)c1NC(=O)c1cc(Br)nn1-c1ncccc1Cl [(231)] | – | ≥ 90% | ≥ 90% |
